Assay results taken from PubChem BioAssay (NCI).
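Protocol summary: plate cells (96-well), add compound at 5 concentrations, incubate 48 h, interpolate endpoints linearly. TGI: concentration producing complete growth inhibition.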

Key:
Assay in all cases: inhibition of tumour cell growth, NCI panel, 48 h
786-0 renal = system: 786-0 renal
K-562 leukemia = system: K-562 leukemia
MCF7 breast = system: MCF7 breast
SW-620 colon = system: SW-620 colon
SN12C renal = system: SN12C renal
MOLT-4 leukemia = system: MOLT-4 leukemia
NCI/ADR-RES ovarian = system: NCI/ADR-RES ovarian
NCI-H460 lung = system: NCI-H460 lung
UO-31 renal = system: UO-31 renal
EKVX NSCLC = system: EKVX NSCLC
HCT-15 colon = system: HCT-15 colon
SNB-19 CNS = system: SNB-19 CNS
U251 CNS = system: U251 CNS
NCI-H522 lung = system: NCI-H522 lung
ACHN renal = system: ACHN renal
HL-60(TB) leukemia = system: HL-60(TB) leukemia
SF-295 CNS = system: SF-295 CNS
OVCAR-5 ovarian = system: OVCAR-5 ovarian
DU-145 prostate = system: DU-145 prostate
KM12 colon = system: KM12 colon
CCRF-CEM leukemia = system: CCRF-CEM leukemia
HOP-92 NSCLC = system: HOP-92 NSCLC
NCI-H23 lung = system: NCI-H23 lung
SR leukemia = system: SR leukemia
HT29 colon = system: HT29 colon
OVCAR-4 ovarian = system: OVCAR-4 ovarian
OVCAR-8 ovarian = system: OVCAR-8 ovarian
MDA-MB-435 = system: MDA-MB-435
A549 NSCLC = system: A549 NSCLC
UACC-62 melanoma = system: UACC-62 melanoma
TK-10 renal = system: TK-10 renal
SF-539 CNS = system: SF-539 CNS
M14 melanoma = system: M14 melanoma
BT-549 breast = system: BT-549 breast
MDA-N = system: MDA-N
NCI-H226 lung = system: NCI-H226 lung
SF-268 CNS = system: SF-268 CNS
RPMI-8226 leukemia = system: RPMI-8226 leukemia
HOP-62 NSCLC = system: HOP-62 NSCLC
LOX IMVI melanoma = system: LOX IMVI melanoma
PC-3 prostate = system: PC-3 prostate
UACC-257 melanoma = system: UACC-257 melanoma
CAKI-1 renal = system: CAKI-1 renal
SNB-75 CNS = system: SNB-75 CNS
HCT-116 colon = system: HCT-116 colon
A498 renal = system: A498 renal
COLO 205 colon = system: COLO 205 colon
SK-MEL-28 melanoma = system: SK-MEL-28 melanoma
SK-MEL-5 melanoma = system: SK-MEL-5 melanoma
MALME-3M melanoma = system: MALME-3M melanoma
SK-MEL-2 melanoma = system: SK-MEL-2 melanoma
T-47D breast = system: T-47D breast
HCC-2998 colon = system: HCC-2998 colon
HS 578T breast = system: HS 578T breast
RXF 393 renal = system: RXF 393 renal
OVCAR-3 ovarian = system: OVCAR-3 ovarian
SK-OV-3 ovarian = system: SK-OV-3 ovarian
IGROV1 ovarian = system: IGROV1 ovarian
MDA-MB-231 breast = system: MDA-MB-231 breast

## COc1cc(/C=C2\CCC(C)C3=C(c4cc(OC)c(OC)c(OC)c4)C(C#N)=C(N)OC32)cc(OC)c1OC (stereo not drawn)
786-0 renal
  TGI: 8.83 µM
K-562 leukemia
  TGI: > 100 µM
MCF7 breast
  TGI: 7.4 µM
SW-620 colon
  TGI: > 100 µM
SN12C renal
  TGI: > 60.6 µM
MOLT-4 leukemia
  TGI: > 49 µM
NCI/ADR-RES ovarian
  TGI: 99.2 µM
NCI-H460 lung
  TGI: > 100 µM
UO-31 renal
  TGI: > 100 µM
EKVX NSCLC
  TGI: 47.6 µM
HCT-15 colon
  TGI: > 68.2 µM
SNB-19 CNS
  TGI: > 100 µM
U251 CNS
  TGI: 25.7 µM
NCI-H522 lung
  TGI: 7.75 µM
ACHN renal
  TGI: > 65.6 µM
HL-60(TB) leukemia
  TGI: > 25 µM
SF-295 CNS
  TGI: > 40.6 µM
OVCAR-5 ovarian
  TGI: > 64.6 µM
DU-145 prostate
  TGI: > 100 µM
KM12 colon
  TGI: 36.8 µM
CCRF-CEM leukemia
  TGI: 26.2 µM
HOP-92 NSCLC
  TGI: > 31.3 µM
NCI-H23 lung
  TGI: > 100 µM
SR leukemia
  TGI: > 37.8 µM
HT29 colon
  TGI: 5.02 µM
OVCAR-4 ovarian
  TGI: > 59.6 µM
OVCAR-8 ovarian
  TGI: > 73 µM
MDA-MB-435
  TGI: 21.6 µM
A549 NSCLC
  TGI: > 100 µM
UACC-62 melanoma
  TGI: 23.2 µM
TK-10 renal
  TGI: > 100 µM
SF-539 CNS
  TGI: 4.98 µM
M14 melanoma
  TGI: 6.92 µM
BT-549 breast
  TGI: > 100 µM
MDA-N
  TGI: 21.9 µM
NCI-H226 lung
  TGI: 6.96 µM
SF-268 CNS
  TGI: > 100 µM
RPMI-8226 leukemia
  TGI: 6.08 µM
HOP-62 NSCLC
  TGI: > 100 µM
LOX IMVI melanoma
  TGI: 8.99 µM
PC-3 prostate
  TGI: 24.8 µM
UACC-257 melanoma
  TGI: > 65.4 µM
CAKI-1 renal
  TGI: > 65.2 µM
SNB-75 CNS
  TGI: 9.24 µM
HCT-116 colon
  TGI: 11.3 µM
A498 renal
  TGI: > 53.4 µM
COLO 205 colon
  TGI: 5.48 µM
SK-MEL-28 melanoma
  TGI: 13.9 µM
SK-MEL-5 melanoma
  TGI: 7.24 µM
MALME-3M melanoma
  TGI: 9.03 µM
SK-MEL-2 melanoma
  TGI: 4.46 µM
T-47D breast
  TGI: 12.9 µM
HCC-2998 colon
  TGI: 32.5 µM
HS 578T breast
  TGI: 14.6 µM
RXF 393 renal
  TGI: 4.36 µM
OVCAR-3 ovarian
  TGI: > 60.1 µM
SK-OV-3 ovarian
  TGI: > 57.2 µM
IGROV1 ovarian
  TGI: > 52.3 µM
MDA-MB-231 breast
  TGI: 10.9 µM

## Cc1ccc(N=Nc2c(O)c(S(=O)(=O)O)cc3cc(S(=O)(=O)O)ccc23)c(C)c1
786-0 renal
  TGI: > 100 µM
K-562 leukemia
  TGI: > 100 µM
MCF7 breast
  TGI: > 100 µM
SW-620 colon
  TGI: > 100 µM
SN12C renal
  TGI: > 100 µM
MOLT-4 leukemia
  TGI: > 100 µM
NCI/ADR-RES ovarian
  TGI: > 100 µM
NCI-H460 lung
  TGI: > 100 µM
UO-31 renal
  TGI: > 100 µM
EKVX NSCLC
  TGI: > 100 µM
HCT-15 colon
  TGI: > 100 µM
SNB-19 CNS
  TGI: > 100 µM
U251 CNS
  TGI: > 100 µM
NCI-H522 lung
  TGI: > 100 µM
ACHN renal
  TGI: > 100 µM
HL-60(TB) leukemia
  TGI: > 100 µM
SF-295 CNS
  TGI: > 100 µM
OVCAR-5 ovarian
  TGI: > 100 µM
DU-145 prostate
  TGI: > 100 µM
KM12 colon
  TGI: > 100 µM
CCRF-CEM leukemia
  TGI: > 100 µM
HOP-92 NSCLC
  TGI: > 100 µM
NCI-H23 lung
  TGI: > 100 µM
SR leukemia
  TGI: > 100 µM
HT29 colon
  TGI: > 100 µM
OVCAR-4 ovarian
  TGI: > 100 µM
OVCAR-8 ovarian
  TGI: > 100 µM
MDA-MB-435
  TGI: > 100 µM
A549 NSCLC
  TGI: > 100 µM
UACC-62 melanoma
  TGI: > 100 µM
TK-10 renal
  TGI: > 100 µM
SF-539 CNS
  TGI: > 100 µM
M14 melanoma
  TGI: > 100 µM
BT-549 breast
  TGI: > 100 µM
MDA-N
  TGI: > 100 µM
NCI-H226 lung
  TGI: > 100 µM
SF-268 CNS
  TGI: > 100 µM
RPMI-8226 leukemia
  TGI: > 100 µM
HOP-62 NSCLC
  TGI: > 100 µM
LOX IMVI melanoma
  TGI: > 100 µM
PC-3 prostate
  TGI: > 100 µM
UACC-257 melanoma
  TGI: > 100 µM
CAKI-1 renal
  TGI: > 100 µM
SNB-75 CNS
  TGI: > 100 µM
HCT-116 colon
  TGI: > 100 µM
A498 renal
  TGI: > 100 µM
COLO 205 colon
  TGI: > 100 µM
SK-MEL-28 melanoma
  TGI: > 100 µM
SK-MEL-5 melanoma
  TGI: > 100 µM
MALME-3M melanoma
  TGI: > 100 µM
SK-MEL-2 melanoma
  TGI: > 100 µM
T-47D breast
  TGI: > 100 µM
HCC-2998 colon
  TGI: > 100 µM
HS 578T breast
  TGI: > 100 µM
RXF 393 renal
  TGI: > 100 µM
OVCAR-3 ovarian
  TGI: > 100 µM
SK-OV-3 ovarian
  TGI: > 100 µM
IGROV1 ovarian
  TGI: > 100 µM
MDA-MB-231 breast
  TGI: > 100 µM
